# Read-outs that look alike come from different tables or passages of the source.
# Columns and labels:
# [1] = Immunosuppressive activity
# cells [2] = experiment: Toxicity in cell culture; type: cell-based
# [3] = test system: ZFHD1-FKBPx3 and FKBPx3-VP16 or FKBPx3-p65; experiment: Dimerizer-dependent transcriptional activation (SEAP) in transiently transfected 293 cells; type: cell-based
# Method: 293 cells were grown in D-MEM (Gibco BRL) supplemented with 10% Bovine Calf Serum. Cells in 35 mm dishes (2.5×10^5 cells/dish) were transiently transfected with use of calcium phosphate precipitation (Ausubel et. al., 1994). Each dish received 375 ng pZHWTx8SVSEAP; 12ng pCGNNZFHD1-FKBPx3 and 25ng pCGNNFKBPx3-VP16 or pCGNNFKBPx3-p65. Following transfection, 2 ml fresh media was added and supplemented with FK1012 to the desired concentration. After a 24 hour incubation […] aliquot of media was removed and assayed for SEAP activity as described (Spencer et. al., 1993).
# An analgous experiment was conducted using a wholly synthetic dimerizer, AP1510, in place of FK1012. Like FK1012, AP1510 is a divalent FKBP-binder and is capable of dimerizing chimeric proteins which contain FKBP domains. In this experiment, 293 cells were grown in DMEM supplemented with 10% Bovine Calf Serum. Cells in 10 cm dishes were transiently transfected by calcium phosphate precipitation (Natesan and Gilman, 1995, Mol. Cell Biol, 15, 5975-5982). Each plate received 1 μg of pZHWTx8SVSEAP reporter, 50 ng pCGNNZFHD1-FKBP3×3, 50 ng pCGNNF3p65 or pCGNNF3VP16. Following transfection, 2 ml fresh media was added and supplemented with AP1510 to the desired concentration. After 24 hrs, 100 μl of the media was assayed for SEAP activity as described (Spencer et al, 1993).
# [4] = test system: FKBP12-containing fusion proteins; experiment: Gene regulation applications of dimerizer (SEAP or hGH reporter systems); type: cell-based; settings: for transcription activation with stably integrated constructs: cells in which the transcription factor and reporter gene constructs are all stably integrated
# Method: After overnight incubation (or longer), assay for target gene expression.
# Secreted alkaline phosphatase activity can be easily measured from the supernatant of appropriately transfected cells using fluorescence-(see (10)), or chemiluminescence-(Tropix, Bedford, Mass.) based assays. Samples to be tested should first be incubated at 65° C. for 1 hour to inactivate endogenous alkaline phosphatase activity.
# [5] = Solubility of AP1510 in culture medium; type: physicochemical; settings: aqueous buffer, kinetic from ethanol stock; serial dilution in (aqueous) culture medium; read-out: highest concentration ensuring complete solubility
# Method: In the latter case it is recommended that the highest concentration not exceed 5 uM, to ensure complete solubility in the (aqueous) medium. […]
# [6] = test system: myristoylated chimeric CD3/FKBP12 (MZF3E) receptor; experiment: FK1012 activation of myristoylated chimeric CD3/FKBP12 (MZF3E) receptor, NFAT SEAP reporter in Jurkat T cells; type: cell-based, human
# Description: In an illustrative case, this was accomplished by creating an intracellular receptor comprised of a small fragment of Src sufficient for posttranslational myristoylation (M), the cytoplasmic tail of zeta (Z; a component of the […] was also used), three consecutive FKBP12s (F3) and a flu epitope tag (E). […] The promoter of the SEAP reporter gene was constructed to be transcriptionally activated by nuclear factor of activated T cells (NFAT), which is assembled in the nucleus following TCR-signaling.
# Specifically, 5 μg of the eukaryotic expression vector, pBJ5, containing a myristoylated chimeric receptor was co-transfected with 4 μg NFAT-SX. MZE, MZF1E, MZF2E and MZF3E contain 0, 1, 2, or 3 copies of FKBP12, respectively, downstream of a myristoylated CD3 cytoplasmic domain (see FIG. 2 of PCT/US94/01617). As a control, 5 μg of pBJ5 was used in a parallel transfection. After 24 hours, aliquots of each transfection containing approximately 10^5 cells were incubated with log dilutions of the drug, FK1012B, as indicated. As a positive control and to control for transfection efficiency, ionomycin (1 μm) and PMA (25 ng/ml) were added to aliquots from each transfection. After an additional 12 hour incubation, the supernatants were assayed for alkaline phosphatase activity and these activities were expressed relative to that of the positive control samples. […] Compare FIGS. 7 and 8 of PCT/US94/01617.
# MZF3Eflu and MZF3Eflag = experiment: Coimmunoprecipitation of epitope-tagged chimeras in Jurkat T cells (in vivo FK1012-induced protein dimerization); type: cell-based, human
# Method: The following experiments confirmed that intracellular aggregation of the MZF3E receptor is indeed induced by the FK1012. The influenza haemagglutinin epitope-tag (flu) of the MZF3E-construct was exchanged with a different epitope-tag (flag-M2). The closely related chimeras, MZF3Eflu and MZF3Eflag, were coexpressed in Jurkat T cells. Immunoprecipitation experiments using anti-Flag-antibodies coupled to agarose beads were performed after the cells were treated with FK1012A. […] In absence of FK1012A, no coimmunoprecipitation of MZF3Eflu is observed. […] This reflects the requirement for aggregation observed with both the endogenous T cell receptor and our artificial receptor MZF3E.
# zeta-chain = experiment: In vitro kinase assay after immunoprecipitation, Jurkat cells stably transfected with MZF3E; type: cell-based, human
# [7] = test system: ZFHD1-FKBPx3 and FRAP-p65; experiment: Rapamycin-dependent hGH expression in transfected HT1080 cells in culture; type: cell-based; settings: HT1080 cells in cell culture
# Method: (§1) Using the approach described in Example 7, constructs were prepared encoding the ZFHD1-FKBPx3 fusion protein, a second fusion protein containing the FKBP:rapaymcin binding (“FRB”) region of FRAP linked to the p6^5 activation domain, and a reporter cassette containing a gene encoding human growth hormone linked to multiple ZFHD1 binding sites. The natural product, rapamycin, forms a ternary complex with FKBP12 and FRAP. Similarly, rapamycin is capable of binding to one or more of the FKBP domains and FRAP FRB domains of the fusion proteins.
# [8] = test system: ZFHD1-FKBPx3 and FRAP-p65; experiment: Rapamycin-dependent hGH expression in nu/nu mice implanted with transfected cells; type: in vivo; settings: rapamycin i.v. 10-10,000 μg/kg, serum 17 hours after administration
# Method: as §1
# 2×10^6 cells from the transfected […] culture were administered to nu/nu mice by intramuscular injection. Following cell implantation, rapamycin was administered i.v. over a range of doses (from 10-10,000 μg/kg). Serum samples were collected from the mice 17 hours after rapamycin administration. Control groups consisted of mice that received no cells but 1.0 mg/kg rapamycin (i.v.) as well as mice that received the cells but no rapamycin.
# FKBP12 [9] = target: T1, FKBP12 (Homo sapiens, UniProt P62942); experiment: FK1012 binding affinity and stoichiometry; settings: linker positioned in the calcineurin binding domain of FK506
# T1 sequence (P62942 whole entry, the tested form may be a part): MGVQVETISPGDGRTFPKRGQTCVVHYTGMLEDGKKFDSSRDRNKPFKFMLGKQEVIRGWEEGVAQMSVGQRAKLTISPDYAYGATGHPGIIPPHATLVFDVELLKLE
# [10] = test system: Jurkat cells stably transfected with MZF3E; experiment: Protein-tyrosine phosphorylation in whole cell lysates (alpha-phosphotyrosine antibodies); type: cell-based, human; settings: whole cell lysates at varying times after stimulation
# Description: The intracellular domains of the TCR, CD3 and zeta-chains interact with cytoplasmic protein tyrosine kinases following antigen stimulation. Specific members of the Src family (lck and/or fyn) phosphorylate one or more tyrosine residues of activation motifs within these intracellular domains (tyrosine activation motif, TAM). The tyrosine kinase ZAP-70 is recruited (via its two SH2 domains) to the tyrosine phosphorylated T-cell-receptor, activated, and is likely to be involved in the further downstream activation of phospholipase C. […] Tyrosine phosphorylation after treatment of cells with either anti-CD3 MAb or FK1012 was detected using monoclonal alpha-phosphotyrosine antibodies. Whole cell lysates were analysed at varying times after stimulation. […] The pattern consisted of a major band of 70 kDa, probably ZAP-70, and minor bands of 120 kDa, 62 kDa, 55 kDa and 42 kDa.
# FKBP12 [11] = target: T1, FKBP12; settings: 2:1 stoichiometry, cited from earlier work
# [12] = test system: calcineurin-mediated TCR signaling; settings: cited from earlier work
# cells [13] = settings: in cell culture; cited from earlier work
# [14] = in vivo
compound,measurement,setting,value
CCC(C)(C)C(=O)C(=O)N1CCCC[C@H]1C(=O)O[C@H](CCc1ccc(OC)c(OC)c1)c1cccc(OCC(=O)NCCNC(=O)COc2cccc([C@@H](CCc3ccc(OC)c(OC)c3)OC(=O)[C@@H]3CCCCN3C(=O)C(=O)C(C)(C)CC)c2)c1 [AP1510],immunosuppressive activity,[1],no immunosuppressive activity
same,toxicity to cells,cells [2],non-toxic to cells
same,dimerizer-dependent transcriptional activation,[3]; 24 hrs,supports synthetic dimerizer-dependent transcriptional activation
same,transcription activation with stably integrated constructs,[4],activates transcription efficiently
same,concentration at which expression becomes detectable,[4]; gene regulation applications,approximately 10 nM
same,concentration at which expression peaks,[4]; gene regulation applications,approximately 100 nM
same,transcription activation compared with FK1012,[4]; gene regulation applications,activates transcription at lower concentrations and to a higher level than PK1012
same,solubility,[5],≤ 5 µM
CO[C@H]1C[C@@H](C)C/C(C)=C/[C@@H](CCOC(=O)NCc2ccccc2)C(=O)C[C@H](O)[C@@H](C)[C@@H](/C(C)=C/[C@@H]2CC[C@@H](O)[C@H](OC)C2)OC(=O)[C@@H]2CCCCN2C(=O)C(=O)[C@]2(O)O[C@H]1[C@@H](OC)C[C@H]2C [FK506-M],termination of FK1012-induced signaling,[6],can be terminated by a deaggregation process
same,toxicity to cells,cells [2],nontoxic
CO[C@H]1C[C@@H](C)C/C(C)=C/[C@@H](CCOC(=O)NCc2ccc(CNC(=O)OCC[C@@H]3/C=C(\C)C[C@H](C)C[C@H](OC)[C@H]4O[C@@](O)(C(=O)C(=O)N5CCCC[C@H]5C(=O)O[C@H](/C(C)=C/[C@@H]5CC[C@@H](O)[C@H](OC)C5)[C@H](C)[C@@H](O)CC3=O)[C@H](C)C[C@@H]4OC)cc2)C(=O)C[C@H](O)[C@@H](C)[C@@H](/C(C)=C/[C@@H]2CC[C@@H](O)[C@H](OC)C2)OC(=O)[C@@H]2CCCCN2C(=O)C(=O)[C@]2(O)O[C@H]1[C@@H](OC)C[C@H]2C [FK1012],dimerization of FKBP monomer constructs MZF1Eflu and MZF1Eflag,MZF3Eflu and MZF3Eflag,also dimerized by FK1012A
same,coimmunoprecipitation of MZF3Eflu with MZF3Eflag,"MZF3Eflu and MZF3Eflag; FK1012A 1 μM, anti-Flag agarose beads",is coimmunoprecipitated with MZF^3Eflag
same,recruitment of kinase activity to the zeta-chain,zeta-chain,resulted in the recruitment of kinase activity to the zeta-chain
CO[C@H]1C[C@@H]2CC[C@@H](C)[C@@](O)(O2)C(=O)C(=O)N2CCCC[C@H]2C(=O)O[C@H]([C@H](C)C[C@@H]2CC[C@@H](O)[C@H](OC)C2)CC(=O)[C@H](C)/C=C(\C)[C@@H](O)[C@@H](OC)C(=O)[C@H](C)C[C@H](C)/C=C/C=C/C=C/1C [rapamycin],rapamycin-dependent expression of the hGH gene,[7],support rapamycin-dependent expression of the hGH gene in cell culture
same,expression of hGH (circulating hGH),[8],Dose-responsive expression of hGH was observed
FK1012,EC50,"[6]; MZF3E in human (Jurkat) T cells, NFAT-driven SEAP reporter, read-out: EC50, secretion of alkaline phosphatase (SEAP)",50 nM
same,FKBP12 binding,FKBP12 [9],leaving FKBP12 binding unaffected
same,immunosuppressive activity,[1],abolishes immunosuppressive activity
same,pattern of tyrosine-phosphorylated proteins,[10],A similar pattern of tyrosine-phosphorylated proteins was observed
same,concentration of peak transcriptional activation,[3]; 24 hour incubation,100 nM
same,transcription activation with stably integrated constructs,[4],poor
same,Kd,"FKBP12 [11]; first binding event, read-out: Kd(1)",0.1 nM
same,Kd,"FKBP12 [11]; second binding event, read-out: Kd(2)",0.8 nM
same,inhibition of calcineurin-mediated TCR signaling / signalling pathways,[12],not inhibit calcineurin-mediated TCR signaling
same,toxic (not toxic up to),cells [13],> 0.1 mM
hGH: human growth hormone,hGH clearance half-life,[14],less than 2 minutes
same,time to undetectable hGH levels,[14],≤ 30 min
